{"source": "paper PMC10987480", "about": "“Biological and mutational analyses of CXCR4–antagonist interactions and design of new antagonistic analogs” (Bioscience Reports, 2023)", "key": {"[1]": {"molecular_target": "T1, CXCR4 (Homo sapiens, UniProt P61073)", "T1 sequence (P61073 whole entry)": "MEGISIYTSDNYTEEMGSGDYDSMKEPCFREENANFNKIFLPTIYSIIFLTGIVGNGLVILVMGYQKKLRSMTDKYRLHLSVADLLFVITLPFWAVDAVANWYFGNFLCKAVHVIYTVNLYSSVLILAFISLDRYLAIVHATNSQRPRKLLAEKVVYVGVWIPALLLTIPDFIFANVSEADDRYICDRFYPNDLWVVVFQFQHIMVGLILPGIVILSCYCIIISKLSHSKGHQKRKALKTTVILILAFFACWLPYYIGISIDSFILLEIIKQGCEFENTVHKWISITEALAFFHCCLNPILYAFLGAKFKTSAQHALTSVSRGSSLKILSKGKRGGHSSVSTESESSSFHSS", "test": "CXCR4-mediated internalization assay, CHO cells expressing CXCR4-EGFP (confocal)", "type": "cell-based", "design": "expressed in transfected cells", "conditions": "same concentrations as in calcium mobilization assay; 50 nM SDF-1α; compared with their effect on calcium mobilization", "description": "Figure 3 The inhibitory effect of the antagonists on CXCR4 internalization CHO cells expressed CXCR4-EGFP conjugates were seeded in 96-well plate with glass bottom. Untreated cells were used as a control. Cells were pre-treated with or without CXCR4 antagonists and internalized with 50 nM SDF-1α (scale bar: 5 μm). The concentrations of the antagonists used were the same as those for the calcium mobilization assay shown above. The data shown were representative of three independent experiments.\nCXCR4 and EGFP were amplified using a primer shown in Supplementary Table S1. The pcDNA3 vector was digested by restriction-enzyme EcoR1 and Apa1. CXCR4 was digested by restriction-enzyme EcoR1 and Xba1. EGFP was digested by restriction-enzyme Xba1 and Apa1. CXCR4–EGFP conjugate was constructed by ligation of three DNA fragments using T4 ligase. The vector containing CXCR4 ligated EGFP at the C-terminus was transfected and expressed in CHO cells in 100 μl DMEM medium supplemented with 2% FBS at 1 × 10^5/ml which was seeded in 96-well black plate glass bottom and incubated at 37°C overnight. Following incubation with tested compounds for 10 min, 50 nM of SDF-1α was added to each well and the internalized CXCR4 was observed using a confocal microscopy (Zeiss LSM880)."}, "[2]": {"molecular_target": "T1, CXCR4", "design": "expressed in transfected cells", "conditions": "previously published result; ref 42 (table footnote; text b13 cites 46); read-out: IC50 (nM), inhibition of 12G5 binding to CXCR4; cited from earlier work", "excerpt": "Table 1 Sequences and structures of eleven antagonists | column: IC50 (nM)"}}, "note": "Positions of bridges follow the written chain, without caps; N, C: chain ends. Non-standard residues stand in square brackets, D forms with d. Residues, ends and D or L forms follow the SMILES beside them. Chains are numbered I, II in the order given. No end group written: not given here. 2Nal = N[C@@H](Cc1ccc2ccccc2c1)C(=O)O; Lys(iPr) = CC(C)NCCCC[C@H](N)C(=O)O", "data": [{"compound": "CC(C)NCCCC[C@H](NC(=O)[C@H]1CCC(=O)N[C@@H](Cc2ccccc2)C(=O)N[C@@H](Cc2ccc(O)cc2)C(=O)N[C@@H](CCCCNC(C)C)C(=O)N[C@H](CCCNC(=N)N)C(=O)N[C@@H](Cc2ccc3ccccc3c2)C(=O)NCC(=O)N1)C(N)=O", "note": "[LY2510924] (FY[Lys(iPr)][dR][2Nal]G[dE][Lys(iPr)]-NH2; lactam N-7 (inferred))", "values": [{"measurement": "Effect on blocking CXCR4 endocytosis (in words)", "setting": "[1]", "value": "lessened effect"}]}, {"compound": "I: [dL]G[dA][dS][dW][dH][dR][dP][dD][dK][dC][dC][dL]G[dY][dQ][dK][dR][dP][dL][dP] / II: [dL]G[dA][dS][dW][dH][dR][dP][dD][dK][dC][dC][dL]G[dY][dQ][dK][dR][dP][dL][dP] (disulfide I:11-II:11, I:12-II:12) [DV1 dimer]", "values": [{"measurement": "Effect on blocking CXCR4 endocytosis (in words)", "setting": "[1]", "value": "lessened effect"}]}, {"compound": "LGASWHRPDKCCLGYQKRPLPQVLLSSWYPTSQLCSKPGVIFLTKRGRQVCADKSKDWVKKLMQQLPVTAR [vMIP-II, viral macrophage-inflammatory protein-II, full-length natural chemokine antagonist produced by human herpesvirus-8; recombinant from Peprotech]", "values": [{"measurement": "IC50", "setting": "[2]", "value": 10, "unit": "nM"}]}]}
